tested on: HEK293 cells; test: Preliminary screening as DNA vectors, GFP transfection of HEK293 cells; type: cell-based; conditions: amino lipid/DOPE liposome with 75 ng plasmid DNA (psin-EGFP-IRES-Puro); number of GFP-expressing cells divided by total nuclei (Hoechst)
In short: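 HEK293 cells in DMEM/10% FBS transfected with 75 ng EGFP plasmid per well complexed with amino lipid/DOPE liposomes in pH 5.6 sodium acetate. Hoechst nuclear stain added 20-24 h post-transfection, then cells cultured another 20-24 h. Confocal imaging gives GFP-positive cells as % of total nuclei.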

SMILES | Absolute DNA transfection efficiency in HEK293 cells [%]
CCCCCCCCCCCCSc1nc(NCCCCCCC)nc(NCCN2CCCC2)n1 [S12N7 D3] | 3.2
CCCCCCCCCCCCNc1nc(NCC2CCN(C)CC2)nc(SCCCCCCCCCCC)n1 [S11N12 D10] | 4.7
CCCCCCCCCCCCN(CCCCCCCCCCCC)c1nc(NCCCN(C)C)nc(SCCCCCCC)n1 [S7^2N12 D6] | 0.6
CCCCCCCCCCCCCCCCCCNc1nc(NCCCN(C)C)nc(SCCCCCCCCCCCCCCCC)n1 [S16N18 D6] | 0.0
CCCCCCCCCCCCCCCSc1nc(NCCCN(C)C)nc(SCCCCCCC)n1 [S7S15 D6] | 7.6
CCCCCCCCCCCCN(CCCCCCCCCCCC)c1nc(NCCCN2CCOCC2)nc(SCCCCCCCC)n1 [S8^2N12 D8] | 0.0
CCCCCCCCCCCCNc1nc(NCCN2CCCC2)nc(SCCCCCCCCCC)n1 [S10N12 D3] | 7.2
CCCCCCCCCCCCCCSc1nc(NCCCCCCCCC)nc(NCCN2CCCCC2)n1 [S14N9 D4] | 2.0
CCCCCCCCNc1nc(NCCN2CCCC2)nc(SCCCCCCCC)n1 [S8N8 D3] | 8.5
CCCCCCCCCNc1nc(NCCN2CCCC2)nc(SCCCCCCCC)n1 [S8N9 D3] | 32.7
CCCCCCCCCSc1nc(NCCCCCCCC)nc(NCCN2CCN(C)CC2)n1 [S9N8 D5] | 30.3
CCCCCCCCCCCCCCCCNc1nc(NCCN(C)C)nc(SCCCCCCCCCCCCCC)n1 [S14N16 D1] | 0.7
CCCCCCCCCCCCCCCCSc1nc(NCCCCCCCCCCCCCCC)nc(NCCCN2CCOCC2)n1 [S16N15 D8] | 0.0
CCCCCCCCCCSc1nc(NCCCCCCCCC)nc(NCCN2CCCC2)n1 [S10N9 D3] | 4.9
CCCCCCCCCCCCCCCSc1nc(NCCCCCCCC)nc(NCCCN2CCOCC2)n1 [S15N8 D8] | 7.9
CCCCCCCCCCCCCCCNc1nc(NCCN2CCOCC2)nc(SCCCCCCCCCCCCCCC)n1 [S15N15 D2] | 0.0
CCCCCCCCCCCCCCCCNc1nc(NCCN2CCN(C)CC2)nc(SCCCCCCC)n1 [S7N16 D5] | 18.2
CCCCCCCSc1nc(NCCCN2CCOCC2)nc(SCCCCCC)n1 [S6S7 D8] | 0.0
CCCCCCCCCCCCCCCCSc1nc(NCCCCCCCCCCCCCCC)nc(NCCN2CCCC2)n1 [S16N15 D3] | 0.0
CCCCCCCCCCCCCCCCCCNc1nc(NCCN2CCN(C)CC2)nc(SCCCCCCCCCCCC)n1 [S12N18 D5] | 0.6
CCCCCCCCCCCCCCCCCCSc1nc(NCCCCCCCCC)nc(NCCN2CCCC2)n1 [S18N9 D3] | 20.4
CCCCCCCCCCCNc1nc(NCCN(C)C)nc(SCCCCCCCC)n1 [S8N11 D1] | 42.2
CCCCCCCCCCCCCCCCCCSc1nc(NCCCCCCCC)nc(NCC2CCN(C)CC2)n1 [S18N8 D10] | 11.7
CCCCCCCCCCCCCCCCCCNc1nc(NCCN(CC)CC)nc(SCCCCCCCC)n1 [S8N18 D7] | 4.1

SMILES | Absolute DNA transfection efficiency in HEK293 cells [%]
CCCCCCCCCCCCCCCCSc1nc(NCCN2CCCC2)nc(N(CCCCCCCCCCCC)CCCCCCCCCCCC)n1 [S16^2N12 D3] | 0.0
CCCCCCCCCCCCCCCCSc1nc(NCCCCCCCCCCCCCCC)nc(NCCCN2CCN(C)CC2)n1 [S16N15 D9] | 0.3
CCCCCCCCCCCCCCCSc1nc(NCCCN2CCN(C)CC2)nc(N(CCCCCCCCCCCC)CCCCCCCCCCCC)n1 [S15^2N12 D9] | 0.9
CCCCCCCCCCCCCCCCCCSc1nc(NCCCCCCCCCCCCC)nc(NCCCN(C)C)n1 [S18N13 D6] | 2.6
CCCCCCCCSc1nc(NCCCN(C)C)nc(SCCCCCCC)n1 [S7S8 D6] | 3.6
CCCCCCCCSc1nc(NCCCN(C)C)nc(SCCCCCCCC)n1 [S8S8 D6] | 5.1
CCCCCCCCCCCCCCCCCCSc1nc(NCCN2CCN(C)CC2)nc(SCCCCCCC)n1 [S7S18 D5] | 14.2
CCCCCCCCCCCCCCCCSc1nc(NCCCN2CCOCC2)nc(N(CCCCCCCCCCCC)CCCCCCCCCCCC)n1 [S16^2N12 D8] | 0.0
CCCCCCCCCNc1nc(NCCCN2CCN(C)CC2)nc(SCCCCCCC)n1 [S7N9 D9] | 22.8
CCCCCCCCCCCCSc1nc(NCCN(C)C)nc(N(CCCCCCCCCCCC)CCCCCCCCCCCC)n1 [S12^2N12 D1] | 0.0
CCCCCCCCCSc1nc(NCCCCCCC)nc(NCCN2CCOCC2)n1 [S9N7 D2] | 4.4
CCCCCCCCCCCCCCCCSc1nc(NCCCCCCCCCCCC)nc(NCCN2CCN(C)CC2)n1 [S16N12 D5] | 1.9
CCCCCCCCCCCSc1nc(NCCN(CC)CC)nc(SCCCCCCC)n1 [S7S11 D7] | 10.4
CCCCCCCCSc1nc(NCCN2CCOCC2)nc(SCCCCCCC)n1 [S7S8 D2] | 0.0
CCCCCCCCCCCCCCCCCCSc1nc(NCCCCCCCC)nc(NCCCN(C)C)n1 [S18N8 D6] | 23.0
CCCCCCCCCCCCNc1nc(NCC2CCN(C)CC2)nc(SCCCCCCCCCC)n1 [S10N12 D10] | 6.8
CCCCCCCCCSc1nc(NCCCN2CCN(C)CC2)nc(SCCCCCC)n1 [S6S9 D9] | 8.4
CCCCCCCCCCCCCNc1nc(NCCCN(C)C)nc(SCCCCCCCCC)n1 [S9N13 D6] | 31.8
CCCCCCCCCCCNc1nc(NCC2CCN(C)CC2)nc(SCCCCCCCCC)n1 [S9N11 D10] | 42.5
CCCCCCCCCSc1nc(NCCCCCCC)nc(NCCN(C)C)n1 [S9N7 D1] | 36.0
CCCCCCCNc1nc(NCCN(CC)CC)nc(SCCCCCCC)n1 [S7N7 D7] | 11.4
CCCCCCCCCCCCCCCCNc1nc(NCCN2CCN(C)CC2)nc(SCCCCCCCCCCCCCCC)n1 [S15N16 D5] | 0.2
CCCCCCCCCCCCCCCNc1nc(NCCN2CCCC2)nc(SCCCCCCCCCCCC)n1 [S12N15 D3] | 2.0
CCCCCCCCCCCCCCCNc1nc(NCCCN(C)C)nc(SCCCCCCCCC)n1 [S9N15 D6] | 13.4

SMILES | Absolute DNA transfection efficiency in HEK293 cells [%]
CCCCCCCCCCCCCCCSc1nc(NCCCCCCC)nc(NCCN(CC)CC)n1 [S15N7 D7] | 13.3
CCCCCCCCCCCCCCCCCCNc1nc(NCCN2CCCCC2)nc(SCCCCCCCCCCC)n1 [S11N18 D4] | 4.4
CCCCCCCCCCCCCCCCSc1nc(NCCCCCCCC)nc(NCCN(C)C)n1 [S16N8 D1] | 10.0
CCCCCCCCCCCCCCCCSc1nc(NCCCCCCCCC)nc(NCCN2CCCCC2)n1 [S16N9 D4] | 9.1
CCCCCCCCCCCCCCSc1nc(NCCN2CCCCC2)nc(SCCCCCCC)n1 [S7S14 D4] | 9.1
CCCCCCCCCCCCSc1nc(NCCCCCCCC)nc(NCCN(CC)CC)n1 [S12N8 D7] | 0.1
CCCCCCCCCCCSc1nc(NCC2CCN(C)CC2)nc(SCCCCCCCC)n1 [S8S11 D10] | 42.4
CCCCCCCCCCCCCCCCSc1nc(NCCN(C)C)nc(SCCCCCCC)n1 [S7S16 D1] | 10.0
CCCCCCCCCCCCCCCCSc1nc(NCCCCCCCCCCCC)nc(NCCN(C)C)n1 [S16N12 D1] | 4.2
CCCCCCCNc1nc(NCCN(C)C)nc(SCCCCCCC)n1 [S7N7 D1] | 23.6
CCCCCCCCCCSc1nc(NCCCCCCCCC)nc(NCCN2CCCCC2)n1 [S10N9 D4] | 2.7
CCCCCCCCCCCCCCCCCCSc1nc(NCCCCCCCCCCCCC)nc(NCCN2CCOCC2)n1 [S18N13 D2] | 0.0
CCCCCCCCCCCCCCCCCCSc1nc(NCCCCCCC)nc(NCCN(C)C)n1 [S18N7 D1] | 6.8
CCCCCCCCCCCCCCCNc1nc(NCCCN2CCOCC2)nc(SCCCCCCCC)n1 [S8N15 D8] | 7.7
CCCCCCCCCCCCSc1nc(NCCCCCCC)nc(NCCCN2CCN(C)CC2)n1 [S12N7 D9] | 0.3
CCCCCCCCCCCCSc1nc(NCCCCCCC)nc(NCCN2CCCCC2)n1 [S12N7 D4] | 0.2
CCCCCCCCCCCCNc1nc(NCCN2CCCC2)nc(SCCCCCCCC)n1 [S8N12 D3] | 17.8
CCCCCCCCCCCSc1nc(NCC2CCN(C)CC2)nc(SCCCCCC)n1 [S6S11 D10] | 38.1
CCCCCCCCCCCCCCCCSc1nc(NCC2CCN(C)CC2)nc(N(CCCCCCCCCCCC)CCCCCCCCCCCC)n1 [S16^2N12 D10] | 0.3
CCCCCCCCSc1nc(NCCCCCCC)nc(NCCN2CCOCC2)n1 [S8N7 D2] | 0.4
CCCCCCCCCCCCCNc1nc(NCCN(CC)CC)nc(SCCCCCCCCC)n1 [S9N13 D7] | 6.5
CCCCCCCCCCCCCCCCSc1nc(NCCN2CCN(C)CC2)nc(N(CCCCCCCCCCCC)CCCCCCCCCCCC)n1 [S16^2N12 D5] | 0.0
CCCCCCCCCCCCCCSc1nc(NCCCCCCCCC)nc(NCCCN2CCN(C)CC2)n1 [S14N9 D9] | 16.7

Source: patent US20230123334A1, “AMINO LIPID COMPOUND, PREPARATION METHOD THEREFOR, AND APPLICATION THEREOF” (SHENZHEN SHENXIN BIOTECHNOLOGY CO., LTD., priority 2020, published 2023)
